Assay results from patent publication US8099262B2, “Estimation of clinical cut-offs” (priority 2004, dated 2012).

Tests used:
Type in all cases: in vivo
HIV [1] = system: HIV; set-up: Linear Regression Higher CO / Linear Regression Lower CO: unit not given here; conditions: for VIROLOGIC RESPONSE Baseline FC for 80% REDUCTION of response (upper cutoff) / VIROLOGIC RESPONSE 20% REDUCTION (fold change, preliminary VirtualPhenotype Clinical Cutoff) / VIROLOGIC RESPONSE 80% REDUCTION (fold change, preliminary VirtualPhenotype Clinical Cutoff): preliminary linear regression analysis; for VIROLOGIC RESPONSE 20% REDUCTION (fold change, preliminary VirtualPhenotype Clinical Cutoff) / VIROLOGIC RESPONSE 80% REDUCTION (fold change, preliminary VirtualPhenotype Clinical Cutoff): virologic response at 8 weeks
Excerpt: Databases of studies for patients with tenofovir containing regimens and consisting of patient baseline demographic characteristics, clinical outcome results with viral load and resistance data (Fold change), were retrieved and remapped according to a common structure allowing a meta-analysis. The structure consisted of baseline sequence, viral load data set, viral load measurements and sampling dates (for example viral load within 3 months of starting new regimen and viral load assessment 8 and/or 24 weeks after beginning new regimen), CD4+ data set which contains CD4+ counts and sampling dates, resistance data set containing the fold changes to different antivirals and sampling dates; patient data set with patient information such as age, gender, race, treatment history; treatment data set with drug regimens, start and stop dates, doses, formulations, frequency of intake, regimen changes after resistance tests. The structure of such a clinical data base can be seen in FIG. 1a.
The viral load response data includes censored (<400 copies/ml) values. Parameters of the underlying uncensored distribution were estimated by maximum likelihood estimation in SAS (proc lifereg). The viral load response data are corrected for baseline viral load and cPSS.
(§1) The models applied were linear regression, logistic regression, and a classification tree. These models also took into account effects of the concomitant HIV drugs (PSS), baseline viral load (Baseline Log(V1)i) and, optionally, treatment history in order to avoid bias introduced by imbalances of important characteristics. From the models, a prediction of clinical outcome could be made at different levels of the baseline fold change resistance.
In the linear regression model, the proposed equation was the following: LogVL dropi=β0+β1*Baseline Log(V1)i+β2*PSSi+β3*(1/FC)i+ξi where i represented the patient, β0 the intercept, β1, β2 and β3 coefficients indicated the increase in log viral load drop per unit increase of respectively the baseline log VL, the number of sensitive drugs in the background regimen and the inverse of the baseline fold change. ξi was a random error term indicating the deviation of the patient from the value predicted by the model. Interactions between all the factors were evaluated and other baseline characteristics, i.e treatment history, were added if relevant.
When viral load results under the detection limits are obtained, biases could be introduced if the detection limit values are considered when calculating viral load drops and using those in the linear regression model. To avoid this, censoring needed to be taken into account and therefore the PROC LIFEREG facility in the SAS package was employed.
Clinical responses were predicted in the models developed in previous step 2. […] In order to determine the fold changes at which clinically relevant diminished clinical responses can be observed, three definitions of clinical cut-offs were considered:
(§2) The maximum effect was defined as the treatment effect at fold change 1, and the minimum effect was defined as the treatment effect at a very high fold change (i.e. when the curve reached a plateau). The effect range was then the difference between the maximum effect and the minimum effect.

HIV [2] = system: HIV; set-up: key to Modelled Lower Cutoff & Confidence Interval / Modelled Upper Cutoff & Confidence Interval: fold change (FC) matching VL drop at 20% and 80% loss of activity; conditions: for Modelled Lower Cutoff & Confidence Interval / Modelled Upper Cutoff & Confidence Interval: preferred embodiment of linear regression
Excerpt: In a preferred embodiment of the linear regression model, more factors are included in order to obtain a more refined prediction of viral load response. These factors include for example a sensitivity score per drug class in addition to the overall sensitivity score of the background treatment (cPSS), previous exposure to the drug (naïve (Yes/No), naïve to PIs, naïve to NRTI's, etc. . . . ). Furthermore, in the preferred embodiment, the fold change is transformed before inserting the figures into the model. The transformation to the fold change comprises a power-transformation ranging from FC^−3 to FC^1. In addition, a quadratic term in cPSS is preferably added.
The NRTI[naïve] value represents whether the patient is naïve to nucleoside RT inhibitors. If yes, value=1, if no, value=0. The PSS[NRTI} represents the phenotypic sensitivity score for NRTIs, i.e the number of active NRTIs in the background regimen for the patient.
Stage 3: Determine Fold change equivalent to VL drop at 20% and 80% loss of activity by inserting values for VL drop into the above equation and calculating FC. […]

HIV [3] = conditions: for Test Data BCO Odds Ratio / Validation Data BCO Odds Ratio: biological cutoffs; for Test Data CCO Odds Ratio / Validation Data CCO Odds Ratio: clinical cutoffs
Excerpt: Further factors which may be taken into account when validating the model are the odds ratios determined using clinical cutoffs compared to those determined using biological cutoffs. These ratios represent the odds of being a responder in the group that is labeled resistant by the cutoffs divided by the odds of being a responder in the group that is labeled sensitive by the cutoffs. In this way it is possible to evaluate how well the cutoffs perform on a drug by drug basis. The further away that the odds ratio is from 1, the stronger the correlation between the resistance class and clinical outcome. The odds ratio as specified above yield numbers smaller than 1 as the odds of being a responder should be smaller in the higher resistance class. Put another way, the probability of response will decrease as the resistance increases. Additionally, if the odds ratio for the CCO is smaller than the odds ratio for the BCO, it can be concluded that the CCO is stronger correlated with clinical outcome and therefore gives a better prediction than the BCO.
A logistic regression model may be used to determine the odds ratio. The model used is the same as the logistic regression model described above except that the fold change in the model is replaced by the resistance class. The coefficient for the resistance class that is obtained from the model is the log (odds ratio). The advantage of using this model is that the odds ratio estimates can be adjusted for the baseline viral load and the cPSS score of the background regimen.
The columns headed CCO Odds Ratio and BCO Odds Ratio represent the odds of being a responder in the group that is labeled resistance by the cutoffs divided by the odds of being a responder in the group that is labeled sensitive by the cutoffs. For example, if there are four non-responders and one responder in the resistant group, and four responders and two non-responders in the sensitive group, the odds of being a responder in the resistant group is 1:4=0.25 and the odds of being a responder in the sensitive group is 4:2=2. […] The further away that the odds ratio is from 1, the stronger the correlation between the resistance class and clinical outcome.
The separation in groups (resistance/sensitive) can be done based on clinical cutoffs or biological cutoffs. This means that odds ratios based on clinical cutoffs (CCO) and odds ratios based on biological cutoffs (BCO) can be compared. If the odds ratio for the CCO is smaller than the odds ratio for the BCO, it can be concluded that the CCO gives a better prediction than the BCO.
In practice, a logistic regression model is used to determine the odds ratio. The model used is similar to logistic regression model described earlier except that the fold change in the model is replaced by the resistance class. The coefficient for the resistance class that is obtained from the model is the log (odds ratio). The advantage of using this model is that the odds ratio estimates can be adjusted for the baseline viral load and the cPSS score of the background regimen. […] In this case, a larger odds ratio indicates a stronger correlation with clinical outcome.

HIV [4] = assay: Logistic regression model of probability of success/failure as a function of baseline fold change resistance (clinical cut-offs); conditions: Definition 2
Excerpt: In such a method, Prob of success is preferably calculated by performing a logistic regression analysis using data from a clinical response dataset, wherein Prob of success is modelled according to the following equation: […]
as §1, with “The clinical outcome results (drop in viral load and response rate) were modelled as a function of baseline fold change (FC) as determined by virtual phenotype (see WO01/79540 and WO02/33402; also http://www.vircolab.com). The models” for “The models”
In the logistic regression, the proposed equation was the following: […]
However, by binning the viral load into successes and failures, part of the information of the continuous variable viral load is lost. Estimates are also corrected for covariates as for linear regression.
as §2
The lower and higher cutoffs are defined as the fold change associated with an expected 20% and 80% decrease respectively of the reference activity of the drug within the regimen.

[5] = Definition 1, log baseline viral load of 5, no active drugs in addition
[6] = Log(BaselineVL)=4, cPSS=2, PSS[NRTI]=1, NRTI[naïve]=0
[7] = definition 2, Log(BaselineVL)=4, reference fold changes 0.9 and 3, cPSS=2, PSS[NRTI]=1, NRTI[naïve]=0
[8] = Definition 2, Overall (whole population)
[9] = Subgroup 1: PSS = 2, baseline Log (VL) = 4
[10] = Subgroup 3: PSS = 2, baseline Log (VL) = 5
[11] = log baseline VL/background PSS of 5/0

Row | Molecule | clinical cutoff for 80% reduced response (upper clinical cutoff) (HIV [1]; definition 2, after 8 weeks) | Modelled Lower Cutoff & Confidence Interval (HIV [2]) | Modelled Upper Cutoff & Confidence Interval (HIV [2]) | Test Data BCO Odds Ratio (HIV [3]) | Test Data CCO Odds Ratio (HIV [3]) | Validation Data BCO Odds Ratio (HIV [3]) | Validation Data CCO Odds Ratio (HIV [3]) | VIROLOGIC RESPONSE Baseline FC for 80% REDUCTION of response (upper cutoff) (HIV [1]; definition 2) | VIROLOGIC RESPONSE 20% REDUCTION (fold change, preliminary VirtualPhenotype Clinical Cutoff) (HIV [1]) | VIROLOGIC RESPONSE 80% REDUCTION (fold change, preliminary VirtualPhenotype Clinical Cutoff) (HIV [1]) | further results
1 | CC(C)CN(C[C@@H](O)[C@H](Cc1ccccc1)NC(=O)O[C@H]1CCOC1)S(=O)(=O)c1ccc(N)cc1 [APV, amprenavir] | 3.4 |  |  |  |  |  |  |  |  |  | 
2 | Cc1cn([C@H]2C=C[C@@H](CO)O2)c(=O)[nH]c1=O [D4T, stavudine] |  |  |  |  |  |  |  |  |  |  | fold change at predicted viral load drop of −0.2 logs (HIV [1]; [5]): 4.0; fold change at predicted viral load drop of −0.6 logs (HIV [1]; [5]): 2.6; predicted viral load drop for any fold change (HIV [1]; Definition 1, log baseline viral load of 5, two active drugs in addition): more than 0.6 log copies/mL; Fold change equivalent to VL drop at 20% loss of activity (HIV [2]; [6]): 1.08; Fold change equivalent to VL drop at 80% loss of activity (HIV [2]; [6]): 2.18; VL drop when drug has lost 20% of its activity (HIV [2]; [6]): −2.76; VL drop when drug has lost 80% of its activity (HIV [2]; [6]): −2.21; modelled lower clinical cutoff (CCO) (HIV [2]; [7]): 1.1; modelled upper clinical cutoff (CCO) (HIV [2]; [7]): 2.2; VL drop at the lower reference FC (drug is fully active) (HIV [2]; lower reference fold change=0.9, Log(BaselineVL)=4, cPSS=2, PSS[NRTI]=1, NRTI[naïve]=0): −2.94; VL drop at the upper reference FC (minimal activity of the drug) (HIV [2]; upper reference fold change=3, Log(BaselineVL)=4, cPSS=2, PSS[NRTI]=1, NRTI[naïve]=0): −2.03
3 | CC(C)(C)NC(=O)[C@@H]1CN(Cc2cccnc2)CCN1C[C@@H](O)C[C@@H](Cc1ccccc1)C(=O)N[C@H]1c2ccccc2C[C@H]1O [IDV, indinavir] | 3.4 |  |  |  |  |  |  |  |  |  | 
4 | Cc1ccnc2c1NC(=O)c1cccnc1N2C1CC1 [NVP, neviripine] |  | 1.5 | 3.2 | 0.290 | 0.282 | 0.054 | 0.054 |  |  |  | 
5 | Indinavir/r [IDV/r] |  | 4.1 | 21.2 | 0.122 | 0.027 | 0.038 | 0.012 | 25 | 3.5 | 25 | 
6 | Lopinavir/r [LPV/r] |  | 10.3 | 61.6 | 0.240 | 0.074 | 0.277 | 0.002 | 56 | 6.9 | 56 | Linear Regression Higher CO (HIV [1]; [8]): 69; Linear Regression Lower CO (HIV [1]; [8]): 8; Logistic Regression Higher CO (HIV [4]; [9]): 64; Logistic Regression Lower CO (HIV [4]; [9]): 11; Logistic Regression Higher CO (HIV [4]; [10]): 58; Logistic Regression Lower CO (HIV [4]; [10]): 9; lower cutoff, logistic regression (HIV [4]; [11]): 10; upper cutoff, logistic regression (HIV [4]; [11]): 60
7 | amprenavir/r [APV/r] | 6.8 | 0.9 | 6.5 | 0.053 | 0.005 |  |  | 6.8 | 1.5 | 6.8 | clinical cutoff for 20% reduced response (lower clinical cutoff) (HIV [1]; definition 2, after 8 weeks): 1.5
